Three compounds from patent publication US12281332B2, “Methods of enhancing development of renal organoids and methods of using the same” (President and Fellows of Harvard College, priority 2017, dated 2025) can be followed below.

“Also recorded” adds a separate entry of the source.

What all share (assay type): cell-based, human
Assay [1] concerns kidney organoids. The assay is described as follows: Association of PECAM1+ vasculature with LTL+ tubules, Imaris analysis. The following applies: for vasculotubular association (percent of vasculature surface area overlapping with LTL+ tubules): 10 days of high flow culture, VEGF 100 ng/mL or VEGF inhibitor in the media. The source says:
Additionally, enhanced PECAM1^+ networks under high FSS associate with tubular structures in both transverse and longitudinal orientations (FIG. 16(d) and FIG. 17). The researchers quantified the association between PECAM1^+ networks and LTL^+tubules using Imaris surface rendering, distance transformation, and masking tools and reveal that under high flow conditions the percent of vascular surface area in contact with tubules is increased nearly 3 fold in comparison to organoids in static culture (FIG. 17(d)).
Confocal Z-stacks of PECAM1 and LTL were taken of fixed whole mount organoids, both iPSC and ESC derived, in the various culture conditions. The Z-stacks were taken at the limit of the confocal depth with each sample, roughly […] per sample which represents approximately the same volume per organoid analyzed. Those z-stacks were then opened in Imaris imaging software. The confocal 3D rendering was turned into a vascular surface and a tubule surface. Then the Imaris surface on surface area contact tool was used to quantify the percent overlap between the vascular and tubular surfaces in 3D, values were reported in FIG. 17(d). In order to assess the average distance the vasculature was away from a tubule, first an Imaris distance transformation was performed on the tubule surface. Then the resulting channel was masked by the vascular surface to create a new masked distance transformation channel. That masked distance transformation channel was opened in Fiji (ImageJ) to retrieve a histogram of all the 3D points, from which we obtained a geometric mean for each sample which is reported in FIG. 17(c).

Assay [2] has as its system kidney organoids. The assay is described as follows: Abundance of vasculature in kidney organoids, PECAM1/CD31 immunostaining and Angiotool. The conditions noted are these: for vessel % area: high FSS, endogenous VEGF vs VEGF addition vs VEGF inhibition; for effect on vasculature formation / vascular growth (summary of studies): FBS 1.5 to 2%; for effect on the CD31+ population of cells (extent and abundance of vasculature): developing organoids age 11-14 Days, additives in advanced RPMI, static and perfused conditions. The protocol:
Methods: To determine effects of chemical additives on the developing developing organoids, the vesicles (age 11, 12, 13 and 14 Days) were treated with VEGF additives, GMEC media, PMA additives, antibiotics, or FBS or FCS additives and other components in advanced RPMI media as a base in both static and perfused conditions. The extent and abundance of vasculature was studied using immunostaining.
Confocal Z-stacks of PECAM1 were taken of fixed whole mount organoids, both iPSC and ESC derived, in the various culture conditions. The Z-stacks were taken at the limit of the confocal depth with each sample, roughly […] per sample which represents approximately the same volume per organoid analyzed. Those z-stacks were then flattened using ImageJ to a 2D max intensity projection (as required by the Angiotool for input). The default settings were employed on the Angiotool for analysis and vessel diameters of 4, 7, 10, and 14 were analyzed for each organoid. In all cases, the whole organoid was used for analysis.

Assay [3] concerns PODXL+ glomeruli-like compartments of kidney organoids. The assay is described as follows: Vascular invasion of PODXL+ podocyte clusters in kidney organoids on chip, confocal imaging. The following applies: high FSS, 10 days on chip; bevacizumab, VEGF 100 ng/mL. From the text:
Glomerular structures of kidney organoids in static culture are largely avascular. Upon animal transplantation, host-derived vascularization of kidney organoids Promotes glomerular vascularization. To determine whether FSS-induced vascularization of organoids in vitro extends to glomerular compartments, PODXL^+ podocyte clusters invaded by MCAMI^+ PECAM1^+ vascular structures were quantified using confocal imaging, in static and high FSS conditions (FIG. 18A and FIG. 18B). […] Given that there is significant upregulation of VEGF-A expression with high FSS (FIG. 18C), organoids cultured under flow can be used to study the role of VEGF in glomerular vascularization in vitro.
As vessel % area is unchanged between endogenous VEGF, VEGF addition, and VEGF inhibition, the difference in glomerular vascularization cannot be attributed to increased abundance of vasculature alone. Meanwhile, the reduced junctional density and increased average vessel length in unperturbed VEGF conditions may be interpreted as vessels growing towards an endogenous VEGF gradient versus more random sporadic growth in the absence of a gradient. Growing with the endogenous VEGF gradient under high flow conditions may allow vessels to reach glomeruli-like compartments in time to invade rather than wrap Bowman's capsule-like structures. […]

With bevacizumab [reference compound], the “vasculotubular association (percent of vasculature surface area overlapping with LTL+ tubules)” value with kidney organoids [1] is “decouples these associations and returns values consistent with static culture levels; also recorded: negated”. In addition, the vessel % area entry in the assay with kidney organoids [2] is on record as “unchanged”. For the same compound, in assay [3], the “incidence of invasion of PODXL+ glomeruli-like compartments by PECAM1+MCAM+ vascular networks” value is “significantly reduced”.

On to “vascular endothelial growth factor [VEGF]”, for which the “vasculotubular association (percent of vasculature surface area overlapping with LTL+ tubules)” value in the assay with kidney organoids [1] is “decouples these associations and returns values consistent with static culture levels; also recorded: negated”. Moreover, the “average distance in 3D between the vasculature and the tubules” value in the assay with kidney organoids [1] (high flow+VEGF compared with static) is “not statistically significantly different”. Also, in the assay with kidney organoids [2], the “effect on vasculature formation / vascular growth (summary of studies)” value is given as “did not help”; the “effect on the CD31+ population of cells (extent and abundance of vasculature)” value is listed as “no measureable effects”; the vessel % area entry is given as “unchanged”. In addition, the “outgrowth of endothelial-like cells” value in the assay with kidney organoids [2] (addition of VEGF) is reported as “robust outgrowth of endothelial-like cells”. Also, the vascular abundance result in the assay with kidney organoids [2] (culture under FSS, VEGF added in the media) is “didn't change”. Also, in the assay with kidney organoids [2] (static culture, exogenous VEGF), the vascular abundance result was “did increase”. The “incidence of invasion of PODXL+ glomeruli-like compartments by PECAM1+MCAM+ vascular networks” value in assay [3] is recorded as “significantly reduced”.

For the compound `CCCCCCCCCCCCCC(=O)O[C@@H]1[C@@H](C)[C@@]2(O)[C@@H](C=C(CO)C[C@]3(O)C(=O)C(C)=C[C@@H]23)[C@@H]2C(C)(C)[C@]12OC(C)=O` [PMA, reference compound], in the assay on kidney organoids [2], the “effect on vasculature formation / vascular growth (summary of studies)” value is recorded as “did not help”; the “effect on the CD31+ population of cells (extent and abundance of vasculature)” value was “no measureable effects”.
